ChEMBL document CHEMBL1201862, “PubChem BioAssay data set” (2004)
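All cell lines were grown in 96-well plates and treated with compound for 48 hours. Here, GI50 denotes the concentration required for 50% inhibition of growth.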 Active and inactive are the calls of the source. Rule as the data show it: active = GI50 up to about 1.1 µM and inactive = higher.

Assays:
Assay in all cases: DTP human tumour cell line panel, 48 h
786-0 = tested on: 786-0
A498 = tested on: A498
A549 = tested on: A549
ACHN = tested on: ACHN
CAKI-1 = tested on: CAKI-1
CCRF-CEM = tested on: CCRF-CEM
COLO 205 = tested on: COLO 205
DU-145 = tested on: DU-145
EKVX = tested on: EKVX
HCC 2998 = tested on: HCC 2998
HCT-116 = tested on: HCT-116
HCT-15 = tested on: HCT-15
HL-60 = tested on: HL-60
HOP-62 = tested on: HOP-62
HT-29 = tested on: HT-29
Hs-578T = tested on: Hs-578T
IGROV-1 = tested on: IGROV-1
K562 = tested on: K562
KM12 = tested on: KM12
LOX IMVI = tested on: LOX IMVI
M14 = tested on: M14
MCF7 = tested on: MCF7
MDA-MB-231 = tested on: MDA-MB-231
MDA-MB-435 = tested on: MDA-MB-435
MDA-N = tested on: MDA-N
MOLT-4 = tested on: MOLT-4
Malme-3M = tested on: Malme-3M
NCI-H226 = tested on: NCI-H226
NCI-H23 = tested on: NCI-H23
NCI-H460 = tested on: NCI-H460
NCI-H522 = tested on: NCI-H522
NCI/ADR-RES = tested on: NCI/ADR-RES
OVCAR-4 = tested on: OVCAR-4
OVCAR-5 = tested on: OVCAR-5
OVCAR-8 = tested on: OVCAR-8
PC-3 = tested on: PC-3
RPMI-8226 = tested on: RPMI-8226
RXF 393 = tested on: RXF 393
SF-268 = tested on: SF-268
SF-295 = tested on: SF-295
SF-539 = tested on: SF-539
SK-MEL-28 = tested on: SK-MEL-28
SK-MEL-2 = tested on: SK-MEL-2
SK-MEL-5 = tested on: SK-MEL-5
SK-OV-3 = tested on: SK-OV-3
SN12C = tested on: SN12C
SNB-19 = tested on: SNB-19
SNB-75 = tested on: SNB-75
SR = tested on: SR
SW-620 = tested on: SW-620
T47D = tested on: T47D
U-251 = tested on: U-251
UACC-257 = tested on: UACC-257
UACC-62 = tested on: UACC-62
UO-31 = tested on: UO-31

NC(=O)c1nnsc1NN=O
GI50 (786-0): > 100 µM (inactive) | GI50 (A498): > 100 µM (inactive) | GI50 (A549): > 100 µM (inactive) | GI50 (ACHN): > 100 µM (inactive) | GI50 (CAKI-1): > 100 µM (inactive) | GI50 (CCRF-CEM): > 100 µM (inactive) | GI50 (COLO 205): > 100 µM (inactive) | GI50 (DU-145): > 100 µM (inactive) | GI50 (EKVX): > 100 µM (inactive) | GI50 (HCC 2998): > 100 µM (inactive) | GI50 (HCT-116): > 100 µM (inactive) | GI50 (HCT-15): > 100 µM | GI50 (HL-60): > 100 µM (inactive) | GI50 (HOP-62): > 100 µM (inactive) | GI50 (HT-29): > 100 µM (inactive) | GI50 (Hs-578T): > 100 µM (inactive) | GI50 (IGROV-1): > 100 µM (inactive) | GI50 (K562): > 100 µM (inactive) | GI50 (KM12): > 100 µM (inactive) | GI50 (LOX IMVI): > 100 µM (inactive) | GI50 (M14): > 100 µM (inactive) | GI50 (MCF7): > 100 µM (inactive) | GI50 (MDA-MB-231): > 100 µM (inactive) | GI50 (MDA-MB-435): > 100 µM (inactive) | GI50 (MDA-N): > 100 µM (inactive) | GI50 (MOLT-4): > 100 µM (inactive) | GI50 (Malme-3M): > 100 µM (inactive) | GI50 (NCI-H226): > 100 µM (inactive) | GI50 (NCI-H23): > 100 µM (inactive) | GI50 (NCI-H460): > 100 µM (inactive) | GI50 (NCI-H522): > 100 µM (inactive) | GI50 (NCI/ADR-RES): > 100 µM (inactive) | GI50 (OVCAR-4): > 100 µM (inactive) | GI50 (OVCAR-5): > 100 µM (inactive) | GI50 (OVCAR-8): > 100 µM (inactive) | GI50 (PC-3): > 100 µM (inactive) | GI50 (RPMI-8226): > 100 µM (inactive) | GI50 (RXF 393): > 100 µM (inactive) | GI50 (SF-268): > 100 µM (inactive) | GI50 (SF-295): > 100 µM (inactive) | GI50 (SF-539): > 100 µM (inactive) | GI50 (SK-MEL-28): > 100 µM (inactive) | GI50 (SK-MEL-2): > 100 µM (inactive) | GI50 (SK-MEL-5): > 100 µM (inactive) | GI50 (SK-OV-3): > 100 µM (inactive) | GI50 (SN12C): > 100 µM (inactive) | GI50 (SNB-19): > 100 µM (inactive) | GI50 (SNB-75): 94.8 µM (inactive) | GI50 (SR): > 100 µM (inactive) | GI50 (SW-620): > 100 µM (inactive) | GI50 (T47D): > 100 µM (inactive) | GI50 (U-251): > 100 µM (inactive) | GI50 (UACC-257): > 100 µM (inactive) | GI50 (UACC-62): > 100 µM (inactive) | GI50 (UO-31): > 100 µM (inactive)
